In PubChem BioAssay (NCI):
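In this assay, cells in 96-well plates receive the compound at five concentrations for 48 hours. Endpoints are linearly interpolated between the surrounding concentrations. The concentration for full growth arrest is given as TGI.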

What was measured:
Test in all cases: DTP human tumour cell line panel, 48 h
[1] = tested on: 786-0 renal
[2] = tested on: HL-60(TB) leukemia
[3] = tested on: MALME-3M melanoma
[4] = tested on: LOX IMVI melanoma
[5] = tested on: A498 renal
[6] = tested on: NCI/ADR-RES ovarian
[7] = tested on: OVCAR-8 ovarian
[8] = tested on: T-47D breast
[9] = tested on: SW-620 colon
[10] = tested on: M14 melanoma
[11] = tested on: TK-10 renal
[12] = tested on: NCI-H23 lung
[13] = tested on: HCT-116 colon
[14] = tested on: SF-295 CNS
[15] = tested on: MDA-MB-435
[16] = tested on: SF-539 CNS
[17] = tested on: IGROV1 ovarian
[18] = tested on: SK-MEL-28 melanoma
[19] = tested on: RXF 393 renal
[20] = tested on: MDA-MB-231 breast
[21] = tested on: UO-31 renal
[22] = tested on: HCT-15 colon
[23] = tested on: CAKI-1 renal
[24] = tested on: SR leukemia
[25] = tested on: DU-145 prostate
[26] = tested on: EKVX NSCLC
[27] = tested on: SF-268 CNS
[28] = tested on: KM12 colon
[29] = tested on: NCI-H460 lung
[30] = tested on: OVCAR-3 ovarian
[31] = tested on: OVCAR-4 ovarian
[32] = tested on: HOP-62 NSCLC
[33] = tested on: A549 NSCLC
[34] = tested on: RPMI-8226 leukemia
[35] = tested on: SK-OV-3 ovarian
[36] = tested on: PC-3 prostate
[37] = tested on: CCRF-CEM leukemia
[38] = tested on: SN12C renal
[39] = tested on: SK-MEL-5 melanoma
[40] = tested on: SNB-19 CNS
[41] = tested on: NCI-H226 lung
[42] = tested on: HCC-2998 colon
[43] = tested on: MOLT-4 leukemia
[44] = tested on: K-562 leukemia
[45] = tested on: SK-MEL-2 melanoma
[46] = tested on: SNB-75 CNS
[47] = tested on: MCF7 breast
[48] = tested on: NCI-H522 lung
[49] = tested on: ACHN renal
[50] = tested on: COLO 205 colon
[51] = tested on: UACC-62 melanoma
[52] = tested on: HOP-92 NSCLC
[53] = tested on: OVCAR-5 ovarian
[54] = tested on: HS 578T breast
[55] = tested on: MDA-N
[56] = tested on: U251 CNS
[57] = tested on: UACC-257 melanoma
[58] = tested on: HT29 colon
[59] = tested on: BT-549 breast

With `CCOC(=O)C1=C(N)Oc2ccc(Br)cc2C1C(C#N)C(=O)OCC` (stereo not drawn) the TGI [1] was 70.1 µM, the TGI [2] was over 100 µM and the TGI [3] was 41 µM. The TGI [4] was 33.1 µM, the TGI [5] was over 100 µM and the TGI [6] was 41 µM. For the same molecule, the TGI [7] was 45.1 µM, the TGI [8] was 53.1 µM and the TGI [9] was 43.2 µM. For the same molecule, the TGI [10] was over 100 µM, the TGI [11] was 36.2 µM and the TGI [12] was 47.3 µM. For the same molecule, the TGI [13] was 42.2 µM, the TGI [14] was over 100 µM and the TGI [15] was 37.9 µM. For the same molecule, the TGI [16] was 40.3 µM, the TGI [17] was 36.5 µM and the TGI [18] was 32.4 µM. For the same molecule, the TGI [19] was 22 µM, the TGI [20] was 55.9 µM and the TGI [21] was 35.8 µM. The TGI [22] was 40.9 µM, the TGI [23] was over 100 µM and the TGI [24] was over 100 µM. For the same molecule, the TGI [25] was over 100 µM, the TGI [26] was over 100 µM and the TGI [27] was 38.5 µM. The TGI [28] was 62.7 µM, the TGI [29] was over 100 µM and the TGI [30] was 39.7 µM. For the same molecule, the TGI [31] was 44.8 µM, the TGI [32] was over 100 µM and the TGI [33] was 70.5 µM. For the same molecule, the TGI [34] was 41.6 µM, the TGI [35] was 47.1 µM and the TGI [36] was 43.4 µM. For the same molecule, the TGI [37] was 44.5 µM, the TGI [38] was over 100 µM and the TGI [39] was 42.6 µM. It also gave a TGI [40] of 68.1 µM, a TGI [41] of 35.3 µM and a TGI [42] of 32.7 µM. It also gave a TGI [43] of 90.9 µM, a TGI [44] of over 100 µM and a TGI [45] of 39.1 µM. For the same molecule, the TGI [46] was over 100 µM, the TGI [47] was 89.4 µM and the TGI [48] was 34.6 µM. The TGI [49] was 33.6 µM, the TGI [50] was 42.3 µM and the TGI [51] was 83.5 µM. For the same molecule, the TGI [52] was 37 µM, the TGI [53] was 66.3 µM and the TGI [54] was 61 µM. The TGI [55] was 54.9 µM, the TGI [56] was 33.8 µM and the TGI [57] was 61.7 µM.

For `COc1ccc(OC)c(N2C(=O)CSC2c2cc(OC)c(OC)c(OC)c2)c1` (stereo not drawn), the TGI [1] was over 100 µM, the TGI [2] was over 100 µM and the TGI [3] was over 100 µM. It also gave a TGI [4] of over 100 µM, a TGI [5] of over 100 µM and a TGI [6] of over 100 µM. It also gave a TGI [7] of over 100 µM, a TGI [9] of over 100 µM and a TGI [10] of over 100 µM. For the same molecule, the TGI [11] was over 100 µM, the TGI [12] was over 100 µM and the TGI [13] was over 100 µM. For the same molecule, the TGI [14] was over 100 µM, the TGI [15] was 86 µM and the TGI [16] was over 100 µM. It also gave a TGI [17] of over 100 µM, a TGI [18] of over 100 µM and a TGI [20] of over 100 µM. For the same molecule, the TGI [58] was over 100 µM, the TGI [21] was over 100 µM and the TGI [22] was over 100 µM. It also gave a TGI [23] of over 100 µM, a TGI [24] of over 100 µM and a TGI [25] of over 100 µM. For the same molecule, the TGI [26] was over 100 µM, the TGI [27] was over 100 µM and the TGI [28] was over 100 µM. The TGI [29] was over 100 µM, the TGI [30] was over 100 µM and the TGI [31] was over 100 µM. The TGI [33] was over 100 µM, the TGI [34] was over 100 µM and the TGI [35] was over 100 µM. It also gave a TGI [36] of over 100 µM, a TGI [37] of over 100 µM and a TGI [38] of over 100 µM. The TGI [39] was over 100 µM, the TGI [40] was over 100 µM and the TGI [41] was over 100 µM. The TGI [42] was over 100 µM, the TGI [43] was over 100 µM and the TGI [44] was over 100 µM. The TGI [45] was over 100 µM, the TGI [47] was over 100 µM and the TGI [48] was over 100 µM. For the same molecule, the TGI [49] was over 100 µM, the TGI [50] was over 100 µM and the TGI [51] was over 100 µM. For the same molecule, the TGI [52] was over 100 µM, the TGI [53] was over 100 µM and the TGI [54] was over 100 µM. For the same molecule, the TGI [55] was over 100 µM, the TGI [56] was over 100 µM and the TGI [57] was over 100 µM. For the same molecule, the TGI [59] was over 100 µM.

In the case of `CC(=O)OC12c3ccccc3-c3ccccc3C1C1C(=O)N(C)C(=O)C12Cl` (stereo not drawn), the TGI [1] is reported as over 10 µM, the TGI [2] is reported as over 10 µM and the TGI [3] is reported as over 10 µM. For the same molecule, the TGI [4] was over 10 µM, the TGI [5] was over 10 µM and the TGI [6] was over 10 µM. It also gave a TGI [7] of over 10 µM, a TGI [8] of over 10 µM and a TGI [9] of over 10 µM. The TGI [10] was over 10 µM, the TGI [11] was over 10 µM and the TGI [12] was over 10 µM. The TGI [14] was over 10 µM, the TGI [15] was over 10 µM and the TGI [16] was over 10 µM. It also gave a TGI [17] of over 10 µM, a TGI [18] of over 10 µM and a TGI [19] of over 10 µM. It also gave a TGI [20] of over 10 µM, a TGI [58] of over 10 µM and a TGI [21] of over 10 µM. For the same molecule, the TGI [22] was over 10 µM, the TGI [23] was over 10 µM and the TGI [24] was over 10 µM. The TGI [25] was over 10 µM, the TGI [26] was over 10 µM and the TGI [27] was over 10 µM. It also gave a TGI [28] of over 10 µM, a TGI [29] of over 10 µM and a TGI [30] of over 10 µM. The TGI [31] was over 10 µM, the TGI [32] was over 10 µM and the TGI [34] was over 10 µM. It also gave a TGI [35] of over 10 µM, a TGI [36] of over 10 µM and a TGI [37] of over 10 µM. The TGI [38] was over 10 µM, the TGI [39] was over 10 µM and the TGI [40] was over 10 µM. It also gave a TGI [41] of over 10 µM, a TGI [42] of over 10 µM and a TGI [43] of over 10 µM. For the same molecule, the TGI [44] was over 10 µM, the TGI [45] was over 10 µM and the TGI [46] was over 10 µM. For the same molecule, the TGI [47] was over 10 µM, the TGI [48] was over 10 µM and the TGI [49] was over 10 µM. It also gave a TGI [50] of over 10 µM, a TGI [52] of over 10 µM and a TGI [53] of over 10 µM. It also gave a TGI [54] of over 10 µM, a TGI [55] of over 10 µM and a TGI [56] of over 10 µM. It also gave a TGI [57] of over 10 µM.

In the case of `Cc1cc(OCc2nnc3n2N=C(c2cc(F)c(Cl)cc2Cl)/C(=C/c2ccc(Cl)cc2)S3)ccc1Cl`, the TGI [1] is reported as over 100 µM, the TGI [2] is reported as 21.3 µM and the TGI [4] is reported as 50.1 µM. The TGI [5] was 45.9 µM, the TGI [6] was over 100 µM and the TGI [7] was 39.7 µM. The TGI [8] was over 100 µM, the TGI [9] was 38.5 µM and the TGI [10] was 65.5 µM. It also gave a TGI [11] of over 100 µM, a TGI [12] of 79.9 µM and a TGI [13] of 66.9 µM. For the same molecule, the TGI [14] was over 100 µM, the TGI [15] was over 100 µM and the TGI [16] was over 100 µM. It also gave a TGI [17] of 52.8 µM, a TGI [18] of 54.9 µM and a TGI [19] of 39.4 µM. The TGI [20] was over 100 µM, the TGI [58] was 52.5 µM and the TGI [21] was over 100 µM. It also gave a TGI [22] of 63.4 µM, a TGI [23] of 49.9 µM and a TGI [24] of 30.4 µM. The TGI [25] was 36.6 µM, the TGI [26] was over 100 µM and the TGI [27] was 51.4 µM. It also gave a TGI [28] of 60.2 µM, a TGI [29] of over 100 µM and a TGI [30] of over 100 µM. It also gave a TGI [31] of 59.8 µM, a TGI [32] of over 100 µM and a TGI [34] of 33.2 µM. The TGI [35] was over 100 µM, the TGI [36] was 65 µM and the TGI [37] was over 100 µM. The TGI [39] was 36.5 µM, the TGI [41] was over 100 µM and the TGI [42] was 40.3 µM. The TGI [43] was 19.8 µM, the TGI [44] was 56.2 µM and the TGI [45] was over 100 µM. The TGI [47] was 87.9 µM, the TGI [48] was 36.4 µM and the TGI [49] was over 100 µM. The TGI [52] was 45.8 µM, the TGI [53] was 95.5 µM and the TGI [54] was 46.1 µM. It also gave a TGI [55] of over 100 µM, a TGI [56] of 43.4 µM and a TGI [57] of over 100 µM.
